Assay results published in PMC5903241 (British Journal of Clinical Pharmacology, 2018).
Where “and” joins values, the source holds several entries; their conditions need not be identical. Equal entries are not always repeated. Where two headings read alike, the source gives them in different places.

Assays:
[1] = type: in vivo, healthy subjects; details: for Tmax / AUC / Cmax: human, plasma, oral; for AUC: AUCtau, steady state; for AUC / Cmax: mean (SD); for Cmax: Cmax,ss; for Estimated geometric mean ratio of AUCtau / Estimated geometric mean ratio of Cmax,ss: sacubitril/valsartan + furosemide vs sacubitril/valsartan alone
Safety assessments = type: in vivo, healthy subjects; details: for Pulse rate / Supine diastolic blood pressure / Supine systolic blood pressure: mean ± SD; for eGFR: mean ± standard deviation, baseline 107.8 ± 10.9
[2] = type: in vivo, healthy subjects; details: mean (SD)
[3] = furosemide 40 mg alone, geometric least squares mean
[4] = 200 mg, sacubitril/valsartan 200 mg twice daily alone
[5] = sacubitril/valsartan 200 mg twice daily + furosemide 40 mg single dose
[6] = urine, 4 to 8 h after furosemide

C[C@H](C[C@@H](Cc1ccc(-c2ccccc2)cc1)NC(=O)CCC(=O)O)C(=O)O [Sacubitrilat, sacubitrilat]
Tmax ([1]; 200 mg): 2 h | AUC [1, 4]: 79600 ng·h/mL | Cmax [1, 4]: 11800 ng/mL | AUC [1, 5]: 86100 ng·h/mL | Cmax [1, 5]: 12700 ng/mL | Estimated geometric mean ratio of AUCtau [1]: 1.08 | Estimated geometric mean ratio of Cmax,ss [1]: 1.08

CCOC(=O)[C@H](C)C[C@@H](Cc1ccc(-c2ccccc2)cc1)NC(=O)CCC(=O)O [Sacubitril, sacubitril]
Tmax ([1]; 200 mg): 0.52 h | AUC [1, 4]: 2330 ng·h/mL | Cmax [1, 4]: 1740 ng/mL | AUC [1, 5]: 2330 ng·h/mL | Cmax [1, 5]: 1810 ng/mL | Estimated geometric mean ratio of AUCtau [1]: 1.01 | Estimated geometric mean ratio of Cmax,ss [1]: 1.04

CCCCC(=O)N(Cc1ccc(-c2ccccc2-c2nnn[nH]2)cc1)[C@H](C(=O)O)C(C)C [Valsartan, valsartan]
Tmax ([1]; 200 mg): 1.75 h | AUC [1, 4]: 18900 ng·h/mL | Cmax [1, 4]: 3860 ng/mL | AUC [1, 5]: 21000 ng·h/mL | Cmax [1, 5]: 4250 ng/mL | Estimated geometric mean ratio of AUCtau [1]: 1.16 | Estimated geometric mean ratio of Cmax,ss [1]: 1.16 | coefficient of variation of pharmacokinetic parameters ([1]; valsartan pharmacokinetic parameters): 35.8% | increase of AUCtau when coadministered with furosemide ([1]; vs sacubitril/valsartan alone): 16% | increase of Cmax,ss when coadministered with furosemide ([1]; vs sacubitril/valsartan alone): 16%

sacubitril/valsartan
subjects reporting AEs diarrhoea, headache and presyncope (each) (Safety assessments; each reported by one subject of 28, sacubitril/valsartan alone): 3.6% | Pulse rate (Safety assessments): 71.6 ± 9.9 bpm | Supine diastolic blood pressure (Safety assessments): 67.5 ± 7.9 mmHg | Supine systolic blood pressure (Safety assessments): 111.1 ± 10.7 mmHg | eGFR (Safety assessments): 107.7 ± 12.5 ml min^–1 1.73 m^–2

NS(=O)(=O)c1cc(C(=O)O)c(NCc2ccco2)cc1Cl [Furosemide, furosemide]
Urine volume, Volume0–4 ([2]; 0 to 4 h after furosemide): 1640.00 (413.49) ml | Urine volume, Volume0–24 ([2]; 0 to 24 h after furosemide): 3816.07 (533.04) ml | Urine volume, Volume4–8 ([2]; 4 to 8 h after furosemide): 585.36 (204.30) ml | Potassium Ae0–4 ([2]; urine, 0 to 4 h after furosemide): 22.87 (5.60) mmol | Sodium Ae0–4 ([2]; urine, 0 to 4 h after furosemide, listed as Furosemide alone): 128.87 mmol and 128.87 (42.36) mmol | Potassium Ae0–24 ([2]; urine, 0 to 24 h after furosemide): 60.35 (8.08) mmol | Sodium Ae0–24 ([2]; urine, 0 to 24 h after furosemide, listed as Furosemide alone): 198.68 mmol and 198.68 (34.95) mmol | Potassium Ae4–8 [2, 6]: 10.04 (3.74) mmol | Sodium Ae4–8 [2, 6]: 21.57 (12.89) mmol | Pulse rate (Safety assessments): 71.0 ± 9.7 bpm | Supine diastolic blood pressure (Safety assessments): 71.6 ± 6.1 mmHg | Supine systolic blood pressure (Safety assessments): 115.5 ± 12.2 mmHg | eGFR (Safety assessments): 103.1 ± 12.5 ml min^–1 1.73 m^–2 | subjects reporting AE back pain (Safety assessments; one subject of 28): 3.6% | subjects reporting AEs (Safety assessments; when treated with furosemide, 28 subjects): Two subjects reported AEs | Ae0–4, amount excreted in urine ([3]; 0 to 4 h): 8.03 mg | Ae0–24, amount excreted in urine ([3]; 0 to 24 h): 12.54 mg
